Key:
[1] = tested on: Calpain activity in SH-SY5Y cells; test: SH-SY5Y + AMC fluorescence assay (Suc-LLVY-AMC substrate); type: cell-based; conditions: read-out: SH-SY5Y + AMC IC50
Human Calpain 1/NS1 = molecular target: T1, Human Calpain 1/NS1 (Homo sapiens, UniProt P07384); test: Calpain inhibition continuous fluorescence (FRET) assay, Human Calpain 1/NS1; type: biochemical; conditions: read-out: Human Calpain 1/NS1 IC50
T1 sequence (P07384 1-714): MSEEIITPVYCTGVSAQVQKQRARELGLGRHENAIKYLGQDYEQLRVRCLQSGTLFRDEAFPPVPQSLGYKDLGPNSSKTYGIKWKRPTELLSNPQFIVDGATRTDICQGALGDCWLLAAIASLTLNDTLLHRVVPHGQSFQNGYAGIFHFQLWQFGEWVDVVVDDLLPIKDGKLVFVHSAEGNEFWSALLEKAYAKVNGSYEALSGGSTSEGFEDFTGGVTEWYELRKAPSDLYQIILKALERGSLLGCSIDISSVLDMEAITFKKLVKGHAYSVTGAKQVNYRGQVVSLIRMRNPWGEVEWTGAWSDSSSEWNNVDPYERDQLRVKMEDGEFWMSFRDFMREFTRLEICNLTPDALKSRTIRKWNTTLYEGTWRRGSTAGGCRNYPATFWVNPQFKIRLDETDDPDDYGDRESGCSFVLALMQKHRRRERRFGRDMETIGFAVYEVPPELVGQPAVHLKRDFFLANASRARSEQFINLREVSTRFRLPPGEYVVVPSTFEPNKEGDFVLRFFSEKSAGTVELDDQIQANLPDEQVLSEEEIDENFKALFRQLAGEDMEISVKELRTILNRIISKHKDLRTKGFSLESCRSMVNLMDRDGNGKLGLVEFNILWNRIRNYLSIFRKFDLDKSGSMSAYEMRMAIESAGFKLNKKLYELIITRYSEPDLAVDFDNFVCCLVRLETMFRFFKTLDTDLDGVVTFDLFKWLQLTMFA
T1 sequence (P04632 1-268 partner): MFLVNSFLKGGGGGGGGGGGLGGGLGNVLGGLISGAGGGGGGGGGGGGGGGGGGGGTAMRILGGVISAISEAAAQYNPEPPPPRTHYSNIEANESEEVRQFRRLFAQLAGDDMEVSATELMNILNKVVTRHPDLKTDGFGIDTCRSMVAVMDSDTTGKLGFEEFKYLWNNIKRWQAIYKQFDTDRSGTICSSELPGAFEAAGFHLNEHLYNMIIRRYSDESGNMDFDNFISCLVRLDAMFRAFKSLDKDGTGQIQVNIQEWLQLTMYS
In short: (§1)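 Calpain activity is measured kinetically with a quenched FRET peptide in 50 mM Tris pH 7.5, 100 mM NaCl, 1 mM DTT, with CaCl2 triggering activation. Rates over 1-5 min are plotted against log inhibitor to obtain IC50 by 4-parameter logistic fitting.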

[2] = tested on: Calpain activity in SH-SY5Y cells (SBDP-150); test: SH-SY5Y Spectrin western blot assay (SBDP-150 breakdown product, A23187-induced); type: cell-based; conditions: Homo sapiens; SH-SY5Y cells, A23187-induced SBDP-150, western blot; read-out: SH-SY5Y Spectrin IC50
Human Calpain 2/NS1 = molecular target: T2, Human Calpain 2/NS1 (Homo sapiens, UniProt P17655); test: Calpain inhibition continuous fluorescence (FRET) assay, Human Calpain 2/NS1; type: biochemical; conditions: read-out: Human Calpain 2/NS1 IC50
T2 sequence (P17655 1-700): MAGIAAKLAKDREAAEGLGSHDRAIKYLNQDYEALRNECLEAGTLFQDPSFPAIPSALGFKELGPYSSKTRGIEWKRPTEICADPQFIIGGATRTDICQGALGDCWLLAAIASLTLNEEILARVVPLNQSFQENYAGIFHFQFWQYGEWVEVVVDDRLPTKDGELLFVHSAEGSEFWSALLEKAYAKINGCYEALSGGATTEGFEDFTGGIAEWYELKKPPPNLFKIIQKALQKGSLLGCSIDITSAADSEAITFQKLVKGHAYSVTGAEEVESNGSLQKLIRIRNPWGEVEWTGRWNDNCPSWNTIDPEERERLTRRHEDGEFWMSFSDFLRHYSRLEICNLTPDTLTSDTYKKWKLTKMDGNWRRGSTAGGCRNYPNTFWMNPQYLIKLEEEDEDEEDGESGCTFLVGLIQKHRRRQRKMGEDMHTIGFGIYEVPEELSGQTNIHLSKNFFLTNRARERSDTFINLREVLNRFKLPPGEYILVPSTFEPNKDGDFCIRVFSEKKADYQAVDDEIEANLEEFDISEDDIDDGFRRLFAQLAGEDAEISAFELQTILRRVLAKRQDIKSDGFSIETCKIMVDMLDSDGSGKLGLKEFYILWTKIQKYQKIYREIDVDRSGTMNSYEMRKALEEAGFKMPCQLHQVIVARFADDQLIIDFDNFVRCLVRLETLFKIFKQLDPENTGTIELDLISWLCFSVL
T2 sequence (P04632 1-268 partner): T1 sequence (P04632 1-268 partner)
In short: as §1

Human Calpain 9/NS1 = molecular target: T3, Human Calpain 9/NS1 (Homo sapiens, UniProt O14815); test: Calpain inhibition continuous fluorescence (FRET) assay, Human Calpain 9/NS1; type: biochemical; conditions: read-out: Human Calpain 9/NS1 IC50
T3 sequence (O14815 1-690): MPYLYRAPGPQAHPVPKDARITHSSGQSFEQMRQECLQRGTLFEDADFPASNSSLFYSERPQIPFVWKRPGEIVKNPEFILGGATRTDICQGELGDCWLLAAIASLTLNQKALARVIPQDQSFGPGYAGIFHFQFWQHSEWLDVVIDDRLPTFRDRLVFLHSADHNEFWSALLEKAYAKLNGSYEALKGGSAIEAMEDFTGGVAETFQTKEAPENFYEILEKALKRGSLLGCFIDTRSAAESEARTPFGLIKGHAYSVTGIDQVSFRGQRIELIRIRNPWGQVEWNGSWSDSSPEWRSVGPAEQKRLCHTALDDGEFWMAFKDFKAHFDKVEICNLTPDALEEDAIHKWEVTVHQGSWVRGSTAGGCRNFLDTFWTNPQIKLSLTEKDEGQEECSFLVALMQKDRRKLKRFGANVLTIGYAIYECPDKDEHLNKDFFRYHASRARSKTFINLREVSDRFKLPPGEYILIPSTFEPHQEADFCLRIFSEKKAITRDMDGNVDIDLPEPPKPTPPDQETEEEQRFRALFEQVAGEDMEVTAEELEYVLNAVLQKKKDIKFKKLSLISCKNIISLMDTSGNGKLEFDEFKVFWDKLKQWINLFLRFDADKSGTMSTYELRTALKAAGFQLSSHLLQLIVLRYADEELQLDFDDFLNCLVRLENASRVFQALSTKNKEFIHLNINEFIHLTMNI
T3 sequence (P04632 1-268 partner): T1 sequence (P04632 1-268 partner)
In short: as §1

SMILES | IC50 [1] | IC50 (Human Calpain 1/NS1) | IC50 [2] | IC50 (Human Calpain 2/NS1) | IC50 (Human Calpain 9/NS1)
Cc1cc(C(=O)NC(Cc2ccccc2)C(=O)C(N)=O)n(-c2ccnc(C3CC3)n2)n1 (centres unmarked) [Compound 352, N-(4-amino-3,4-dioxo-1-phenylbutan-2-yl)-1-(2-cyclopropylpyrimidin-4-yl)-3-methyl-1H-pyrazole-5-carboxamide] | 10 to 25 µM | < 3 µM | > 25 µM | < 3 µM | < 3 µM
Cc1nc(-c2cccc(F)c2)c(C(=O)N[C@H](C=O)Cc2ccccc2)o1 [Compound 353, (S)-4-(3-fluorophenyl)-2-methyl-N-(1-oxo-3-phenylpropan-2-yl)oxazole-5-carboxamide] | > 25 µM | < 3 µM | 10 to 25 µM | < 3 µM | < 3 µM
NC(=O)C(=O)C(Cc1ccccc1)NC(=O)c1oc(C(F)(F)F)nc1-c1ccccc1F (centres unmarked) [Compound 358, N-(4-amino-3,4-dioxo-1-phenylbutan-2-yl)-4-(2-fluorophenyl)-2-(trifluoromethyl)oxazole-5-carboxamide] | < 10 µM | < 3 µM | 10 to 25 µM | < 3 µM | < 3 µM
Cc1nc(-c2ccccc2)c(C(=O)N[C@@H](Cc2ccccc2)C(O)C(N)=O)o1 (stereo partly drawn) [Compound 360, N-((2S)-4-amino-3-hydroxy-4-oxo-1-phenylbutan-2-yl)-2-methyl-4-phenyloxazole-5-carboxamide] | > 25 µM | > 10 µM | > 25 µM | > 10 µM | > 10 µM
C#CCOCc1ccc(-c2nsnc2C(=O)N[C@@H](Cc2ccccc2)C(=O)CF)cc1 [Compound 362, (S)—N-(4-fluoro-3-oxo-1-phenylbutan-2-yl)-4-(4-((prop-2-yn-1-yloxy)methyl)phenyl)-1,2,5-thiadiazole-3-carboxamide] | > 25 µM | < 3 µM | < 10 µM | < 3 µM | < 3 µM
NC(=O)C(=O)C(Cc1ccccc1)NC(=O)c1nsnc1-c1ccc(CNC(=O)c2ccc(F)cc2)cc1 (centres unmarked) [Compound 363, N-(4-amino-3,4-dioxo-1-phenylbutan-2-yl)-4-(4-((4-fluorobenzamido)methyl)phenyl)-1,2,5-thiadiazole-3-carboxamide] | > 25 µM | < 3 µM | < 10 µM | < 3 µM | < 3 µM
NC(=O)C(=O)C(Cc1ccccc1)NC(=O)c1nsnc1Br (centres unmarked) [Compound 366, N-(4-amino-3,4-dioxo-1-phenylbutan-2-yl)-4-bromo-1,2,5-thiadiazole-3-carboxamide] | < 10 µM | < 3 µM | 10 to 25 µM | < 3 µM | < 3 µM
NC(=O)C(=O)C(Cc1ccccc1)NC(=O)c1nsnc1-c1cccc2c1OCO2 (centres unmarked) [Compound 367, N-(4-amino-3,4-dioxo-1-phenylbutan-2-yl)-4-(benzo[d][1,3]dioxol-4-yl)-1,2,5-thiadiazole-3-carboxamide] | < 10 µM | < 3 µM | < 10 µM | < 3 µM | < 3 µM

More lines, now with the values ahead:

IC50 [1] | IC50 (Human Calpain 1/NS1) | IC50 [2] | IC50 (Human Calpain 2/NS1) | IC50 (Human Calpain 9/NS1) | SMILES
< 10 µM | < 3 µM | > 25 µM | < 3 µM | < 3 µM | NC(=O)C(=O)C(Cc1ccccc1)NC(=O)c1cc(C(F)(F)F)nn1-c1ncccn1 (centres unmarked) [Compound 349, N-(4-amino-3,4-dioxo-1-phenylbutan-2-yl)-1-(pyrimidin-2-yl)-3-(trifluoromethyl)-1H-pyrazole-5-carboxamide]
< 10 µM | < 3 µM | 10 to 25 µM | < 3 µM | < 3 µM | NC(=O)C(=O)C(Cc1ccccc1)NC(=O)c1cc(Cl)nn1-c1ncccn1 (centres unmarked) [Compound 350, N-(4-amino-3,4-dioxo-1-phenylbutan-2-yl)-3-chloro-1-(pyrimidin-2-yl)-1H-pyrazole-5-carb oxamide]
< 10 µM | < 3 µM | 10 to 25 µM | < 3 µM | < 3 µM | Cc1cc(C(=O)NC(Cc2ccccc2)C(=O)C(N)=O)n(-c2ncccn2)n1 (centres unmarked) [Compound 351, N-(4-amino-3,4-dioxo-1-phenylbutan-2-yl)-3-methyl-1-(pyrimidin-2-yl)-1H-pyrazole-5-carb oxamide]
< 10 µM | < 3 µM | < 10 µM | < 3 µM | < 3 µM | Cc1nc(-c2ccccc2)c(C(=O)N[C@@H](Cc2ccc(O)cc2)C(=O)C(N)=O)o1 [Compound 354]
> 25 µM | < 3 µM | > 25 µM | < 3 µM | < 3 µM | Cc1nc(-c2cnc3ccccc3n2)c(C(=O)NC(Cc2ccccc2)C(=O)C(N)=O)o1 (centres unmarked) [Compound 356, N-(4-amino-3,4-dioxo-1-phenylbutan-2-yl)-2-methyl-4-(quinoxalin-2-yl)oxazole-5-carboxamide]
< 10 µM | < 3 µM | < 10 µM | < 3 µM | < 3 µM | Cc1nc(-c2cccc(F)c2F)c(C(=O)NC(Cc2ccccc2)C(=O)C(N)=O)o1 (centres unmarked) [Compound 361, N-(4-amino-3,4-dioxo-1-phenylbutan-2-yl)-4-(2,3-difluorophenyl)-2-methyloxazole-5-carboxamide]
< 10 µM | < 3 µM | < 10 µM | < 3 µM | < 3 µM | NC(=O)C(=O)C(Cc1ccccc1)NC(=O)c1nsnc1-c1cnccn1 (centres unmarked) [Compound 365, N-(4-amino-3,4-dioxo-1-phenylbutan-2-yl)-4-(pyrazin-2-yl)-1,2,5-thiadiazole-3-carboxamide]
> 25 µM | < 3 µM | 10 to 25 µM | < 3 µM | < 3 µM | NC(=O)C(=O)C(Cc1ccccc1)NC(=O)c1nsnc1-c1cccc(COCc2ccccc2)c1 (centres unmarked) [Compound 370, N-(4-amino-3,4-dioxo-1-phenylbutan-2-yl)-4-(3-((benzyloxy)methyl)phenyl)-1,2,5-thiadiazole-3-carboxamide]

— US11339130B1 (Blade Therapeutics, Inc., priority 2016, dated 2022)
